From paper PMC6155831, “Promising Inhibitory Effects of Anthraquinones, Naphthopyrone, and Naphthalene Glycosides, from Cassia obtusifolia on α-Glucosidase and Human Protein Tyrosine Phosphatases 1B” (Molecules : A Journal of Synthetic Chemistry and Natural …, 2016)

Tests used:
[1] = target: T1, PTP1B (human recombinant) (Homo sapiens, UniProt P18031); assay: Enzyme kinetic analysis of PTP1B inhibition (Dixon and Lineweaver-Burk plots); format: biochemical
T1 construct: purchased Biomol International LP (Plymouth Meeting, PA, USA)
T1 sequence (P18031 1-435): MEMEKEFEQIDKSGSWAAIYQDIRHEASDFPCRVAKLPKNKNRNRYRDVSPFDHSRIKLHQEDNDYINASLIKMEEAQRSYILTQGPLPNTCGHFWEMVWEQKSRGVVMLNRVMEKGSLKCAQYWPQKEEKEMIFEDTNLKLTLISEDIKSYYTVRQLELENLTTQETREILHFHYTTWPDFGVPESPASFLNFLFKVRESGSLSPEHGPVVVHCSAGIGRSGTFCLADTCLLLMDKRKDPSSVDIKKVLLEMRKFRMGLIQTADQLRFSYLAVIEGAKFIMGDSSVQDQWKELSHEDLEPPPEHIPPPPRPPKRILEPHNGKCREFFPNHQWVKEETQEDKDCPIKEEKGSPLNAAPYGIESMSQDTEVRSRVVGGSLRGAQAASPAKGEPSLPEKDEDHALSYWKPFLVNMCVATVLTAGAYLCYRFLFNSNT
Protocol: (§1) Since the Ki value represents the concentration needed to form an enzyme-inhibitor complex, this value plays an important role in the development of preventive and therapeutic agents.
(§2) In order to determine the inhibition mechanism, enzymatic inhibition at various concentrations of alaternin was evaluated by monitoring the effects of different concentrations of the substrates via Dixon plots (single reciprocal plot). Dixon plots of inhibition of PTP1B by alaternin were obtained in the presence of different concentrations of substrate: 1.0, 0.5, and 0.25 mM of pNPP. The test concentrations of alaternin in the PTP1B kinetic analysis were 0, 0.8, and 4.0 µM. Dixon plots of α-glucosidase inhibition by alaternin were performed in the presence of different concentrations of substrate: 2.5, 1.25, and 0.625 mM of pNPG. The test concentrations of alaternin used in the α-glucosidase kinetic analysis were 0.97, 1.95, and 3.90 µM. Both enzymatic procedures consisted of the same, aforementioned PTP1B and α-glucosidase assay methods. The inhibition constants (Ki) were determined by interpretation of the Dixon plots, where the value of the x-axis implies −Ki.

[2] = test system: insulin-resistant HepG2 cells; assay: 2-NBDG glucose uptake assay in insulin-resistant HepG2 cells; format: cell-based, human; conditions: 12.5, 25, and 50 μM alaternin, 24 h, compared to the control
Protocol: The HepG2 (human hepatocarcinoma) cell line was purchased from the American Type Culture Collection (HB-8065, Manassas, VA, USA). Cells were maintained in MEM containing 2.0 mM L-glutamine, 0.1 mM non-essential amino acids, 1.0 mM sodium pyruvate, and 10% FBS at 37 °C in a humidified atmosphere with 5% CO2. The medium was changed every 48 h. […] The establishment of an insulin-resistant HepG2 cell model and glucose uptake was performed according to the reported method, with slight modifications. Briefly, HepG2 cells were cultured in 96-well cluster plates. After reaching confluence, the cells were treated with 10^−6 mol/L insulin for 24 h to induce insulin resistance. […] After this incubation, the 2-NBDG uptake in insulin-resistant HepG2 cells was measured. The cells were incubated with 40 μM 2-NBDG for 30 min. To stop the response, cells were washed with ice-cold PBS and the fluorescence intensity of 2-NBDG was measured on a Synergy HT microplate reader (BioTek Instruments, Winooski, VT, USA) at 485 nm excitation and 528 nm emission. Six replicate wells were established and each experiment was repeated three times.

Yeast α-glucosidase [3] = assay: α-Glucosidase inhibitory assay with pNPG as substrate; format: biochemical; conditions: test concentration up to 400 µg/mL in 10% DMSO, triplicate
Protocol: Enzyme inhibition assays were carried out spectrophotometrically using a procedure reported by Li et al.. A 60 μL reaction mixture containing 20 μL of 100 mM phosphate buffer (pH 6.8), 20 μL of 2.5 mM pNPG, and 20 μL of sample (test concentration up to 400 μg/ml for compounds) dissolved in 10% DMSO was added to each well, followed by the addition of 20 μL of α-glucosidase (0.2 U/mL in 10 mM phosphate buffer (pH 6.8)). The plate was incubated at 37 °C for 15 min, and then 80 μL of 0.2 M sodium carbonate solution was added to stop the reaction. Right after that, the absorbance was recorded at 405 nm using a VERSA max microplate reader (Molecular Devices, Sunnyvale, CA, USA). The control contained the same reaction mixture with the same volume of phosphate buffer instead of sample solution. […] The percent inhibition (%) was obtained using the following equation: % Inhibition = (Ac − As)/Ac × 100, where Ac is the absorbance of the control, and As is the absorbance of the sample.

Yeast α-glucosidase [4] = assay: Enzyme kinetic analysis of α-glucosidase inhibition (Dixon and Lineweaver-Burk plots); format: biochemical; conditions: for Inhibition type α-Glucosidase: Dixon plot and Lineweaver-Burk plot
Protocol: as §1, §2

[5] = target: T1, PTP1B (human recombinant); assay: Protein tyrosine phosphatase 1B (PTP1B) inhibition assay with pNPP as substrate; format: biochemical
Protocol: The PTP1B inhibitory activities were evaluated using p-nitrophenyl phosphate as the substrate (pNPP) in a procedure reported by Cui et al.. Each well of a 96-well plate (final volume 100 μL) contained were 40 μL of PTP1B enzyme (0.5 units diluted with a PTP1B reaction buffer containing 50 mM citrate (pH 6.0), 0.1 M NaCl, 1 mM EDTA, and 1 mM dithiotheritol (DTT)), to which sample (test concentration up to 100 μg/mL) dissolved in 10% DMSO was or was not added. The plate was pre-incubated at 37 °C for 10 min, and then 50 μL of 2 mM pNPP in PTP1B reaction buffer was added. Following incubation at 37 °C for 30 min, the reaction was terminated with the addition of 10 M NaOH. The amounts of p-nitrophenyl produced after enzymatic dephosphorylation from pNPP was estimated by measuring the absorbance at 405 nm using microplate spectrophotometer (Molecular Devices). The non-enzymatic hydrolysis of 2 mM pNPP was corrected by measuring the increase in absorbance at 405 nm obtained in the absence of PTP1B enzyme. The percent inhibition (%) was obtained by the following equation: % inhibition = (Ac − As)/Ac × 100, where Ac is the absorbance of the control, and As is the absorbance of the sample.

HepG2 cells = assay: MTT cytotoxicity assay on HepG2 cells; conditions: HepG2 cells, MTT, 24 h
Protocol: Before determining the insulin resistance of alaternin and emodin, the cytotoxicity of alaternin and emodin on HepG2 cells was first measured by the MTT assay. […] To investigate the ability of alaternin and emodin to increase glucose uptake, a 2-[N-(7-nitrobenz-2-oxa-1,3-diazol-4-yl) amino]-2-deoxy-D-glucose (2-NBDG) uptake assay was performed with insulin-resistant HepG2 cells.

Compound: Cc1cc2c(c(O)c1O)C(=O)c1c(O)cc(O)cc1C2=O [Alaternin, 2-hydroxy emodin]
- Inhibition type PTP1B ([1]; Dixon plot and Lineweaver-Burk plot): Competitive
- Ki ([1]; Dixon plot, pNPP 1.0, 0.5, 0.25 mM): 1700 nM
- insulin-stimulated uptake of 2-NBDG [2]: significantly enhanced
- α-Glucosidase IC50 (Mean ± SEM) (Yeast α-glucosidase [3]): 0.99 ± 0.02 µg/mL
- Inhibition type α-Glucosidase (Yeast α-glucosidase [4]): mixed type
- Inhibition type α-Glucosidase (Yeast α-glucosidase [4]; listed as alaternin): Mixed
- Ki (Yeast α-glucosidase [4]; Dixon plot, pNPG 2.5, 1.25, 0.625 mM): 660 nM
- PTP1B inhibitory activity compared with emodin ([5]; fold higher than emodin): three-fold higher
- IC50 ([5]; pNPP substrate, test concentration up to 100 µg/mL in 10% DMSO, triplicate, read-out: PTP1B IC50 (Mean ± SEM) (converted)): 4260 nM
- concentration without any cytotoxicity (HepG2 cells): up to 50 µM
